Source: patent publication US20190133124A1, “BACILLUS AND LIPOCHITOOLIGOSACCHARIDE FOR IMPROVING PLANT GROWTH” (NOVOZYMES BIOAG A/S, priority 2016, published 2019)

Tests used:
[1] = system: corn seeds (Monsanto, DKC 63-33); assay: Metro-Mix 830 system (growth chamber): corn seedling dry weight after seed treatment with Bacillus amyloliquefaciens and Myc factor; type: in vivo
Procedure: A study was performed to determine the effect of Bacillus amyloliquefaciens, LCOs, or combinations of Bacillus amyloliquefaciens and LCOs on corn growth. Corn seeds were treated with Bacillus amyloliquefaciens strain SB3281 bacteria alone, or in combination with an LCO IV (C16:0, S) Myc factor (FIG. 1B). In this study, corn seeds treated with Bacillus amyloliquefaciens alone or Myc factor alone were compared to non-treated control corn seeds. In addition, corn seeds treated with Bacillus amyloliquefaciens and Myc factor were included in the study. Seeds treated as above were tested in a system designed to test various parameters of early emergence of treated seeds. In this system, the treated seeds were planted in Metro-Mix® 830 (Sun Gro Horticulture; […], Mass., U.S.) and grown in a growth chamber (25° C., 60% relative humidity, 18/6 hour light/dark cycle). Germination trays (12 rows of 6 wells) were filled with moist Metro-Mix® 830. Treated seeds were sown into the wells (30 wells per seed treatment) and grown in the growth chamber for 8 days. The seedlings were harvested, and dry weights of roots/shoots from the seedlings were obtained. To measure the dry weight, the soil was removed from the roots, and dry weights of the roots/shoots and biomass per seedling were determined as described in Example 1. To obtain the Bacillus amyloliquefaciens bacterium for the study, strain SB3281 (ATCC PTA-7542) was grown as described in Example 1. Samples of the bacteria were taken from the culture at 24 hrs (T1). The number of bacteria in the cultures at the various time points was determined by plating serial dilutions from the cultures on SMA plates and the colonies that formed were counted and multiplied by the dilution factor. The number of spores in the cultures were determined by heating aliquots from the cultures at 80° C. in a water bath for 10 minutes to kill vegetative cells. Serial dilutions were plated as above and colony counts multiplied by the dilution factor. Corn seeds were treated by applying a total of 500 μl of treatment substances (e.g., bacteria, LCO, etc.) to 50 g of corn seeds (Monsanto, DKC 63-33). The seeds were allowed to dry at room temperature in bags for 3-4 hours before used in the Metro-Mix® experiments. Control seeds were treated with 500 μl of water. Another group of seeds was treated with 500 μl of a Bacillus amyloliquefaciens culture. A third group of seeds was treated with 500 μl of a 10^-9 M solution of Myc factor. A fourth group of seeds was treated with 250 μl of the Bacillus amyloliquefaciens culture and 250 μl of a 10^-9 M solution of Myc factor.

[2] = system: corn seeds (Monsanto, DKC 63-33); assay: Moist chamber system: corn seedling dry weight after seed treatment with Bacillus amyloliquefaciens and Nod factor; type: in vivo
Procedure: A study was performed to determine the effect of seed treatment of Bacillus amyloliquefaciens, a Nod factor, or a combination of Bacillus amyloliquefaciens and a Nod factor on corn growth. Corn seeds were treated with Bacillus amyloliquefaciens strain SB3281 bacteria alone, an LCO V (C18:1) Nod factor (FIG. 1A) alone, or a combination of the bacterial strain and Nod factor. Seeds treated as above were tested in a system designed to test various parameters of early seed germination. In this system, the seeds were placed on moist germination paper, in petri dishes, in a representative mock moist chamber experiment (for each seed treatment, 3 petri dishes, each with 5 seeds per dish, were used; 10 ml of deionized water was added to the germination paper per dish). The seeds were allowed to grow in the petri dishes at room temperature for approximately 2 weeks. After that time, various parameters of the seedlings were measured. The lengths of roots/shoots were measured in some experiments. In some experiments, the dry weights of the roots/shoots were determined after dissecting roots from shoots, drying the roots/shoots (placed in a coin envelope) in a 70° C. oven for 2 days, and weighing the roots/shoots. The individual biomass per seedling was determined from these measurements in order to find the average biomass per treatment. To obtain the Bacillus amyloliquefaciens bacterium for the study, strain SB3281 (ATCC PTA-7542) was maintained on Standard Methods Agar (“SMA”; Smith River Biologicals; Ferrum, Va., U.S.). Single colonies were selected from SMA and used to inoculate 5 ml of LB medium. Twenty-four hour old LB cultures were used to inoculate a 250 ml flask containing 100 ml of Si medium (per liter contained 9.4 g of yeast extract, 9.4 g of corn syrup solids, 0.5 g of magnesium chloride hexahydrate, 0.2 g of manganese (II) chloride tetrahydrate, 0.2 g of calcium chloride dehydrate, and 0.27 g of sodium hydroxide, pH 7.0). The flask was incubated at 30° C. on a shaker at 165 rpm. Samples of the bacteria were taken from the culture at 7 days (T7). The number of bacteria in the cultures at the various time points was determined by plating serial dilutions from the cultures on SMA plates and the colonies that formed were counted and multiplied by the dilution factor. The number of spores in the cultures were determined by heating aliquots from the cultures at 80° C. in a water bath for 10 minutes to kill vegetative cells. Serial dilutions were plated as above and colony counts multiplied by the dilution factor. Generally, the cultures contained 10^9 bacteria or spores per ml. Corn seeds were treated by applying a total of 500 μl of treatment substances (e.g., bacteria, LCO, etc.) to 50 g of corn seeds (Monsanto, DKC 63-33). The seeds were allowed to dry at room temperature in bags for 3-4 hours before used in the moist chamber experiments. For treatment of seeds with a single substance (e.g., bacteria alone, LCO alone), 500 μl of the bacterial culture was used, or 500 μl of a LCO solution that contained 6 μl of a 10^−8 M LCO stock solution in 100 ml of buffer was used. For treatment of seeds with two substances (e.g., bacteria and an LCO), 250 μl of the bacterial culture and 250 μl of the 6×10^−13 M LCO stock solution was used. Negative control corn seeds were treated with 500 μl of water. […]

Compound | Average individual seedling dry weight ([1]; Metro-Mix 830, growth chamber 25° C., 8 days, culture grown 1 day (T1), single: 500 μl culture or 500 μl 10^−9 M Myc factor, combination: 250 μl + 250 μl, per 50 g seeds) [g] | Decrease in seedling dry weight versus control ([1]; difference to control 0.1985 g, Metro-Mix 830) [g] | Change in seedling dry weight over control (about %) ([1]; rounded, Metro-Mix 830) | Effect on corn plant growth (in words) ([1]; seedling dry weight, Metro-Mix 830) | Percent increase seedling dry weight over control ([1]; vs water-treated control, Metro-Mix 830, 8 days) [%] | Average individual seedling dry weight ([2]; approximately 2 weeks, T7 culture, single: 500 μl culture or 500 μl 6×10^−13 M LCO, combination: 250 μl + 250 μl, per 50 g seeds) [g] | Increase in seedling dry weight over control ([2]; difference to control 0.2190 g) [g] | Increase in seedling dry weight over control (about %) ([2]; rounded) | Effect on corn plant growth (in words) ([2]; seedling dry weight) | Percent increase seedling dry weight over control ([2]; vs water-treated control) [%]
CCCCCCCCCCCCCCCC(=O)N[C@H]1[C@H](O[C@H]2[C@H](O)[C@@H](NC(C)=O)[C@H](O[C@H]3[C@H](O)[C@@H](NC(C)=O)[C@H](O[C@H]4[C@H](O)[C@@H](NC(C)=O)C(O)O[C@@H]4COS(=O)(=O)O)O[C@@H]3CO)O[C@@H]2CO)O[C@H](CO)[C@@H](O)[C@@H]1O (stereo partly shown) [Myc factor, LCO IV (C16:0, S)] | 0.1921 | 0.0064 | about −3.2% | appeared to have a negative effect on corn plant growth | −3.22 |  |  |  |  | 
LCO V (C18:1) [Nod factor] |  |  |  |  |  | 0.2244 | 0.0054 | about 2.5% | increased corn plant growth | 2.47
